# Activity calls are given as the source filed them.
# Legend:
# [1] = A High Throughput Confirmatory Assay used to Identify Novel Compounds that Inhibit Mycobacterium Tuberculosis in the absence of Glycerol.; type: functional
# [2] = microbe, parasite or virus in culture; type: functional; settings: Mycobacterium tuberculosis
# [3] = molecular target: T1, Neuropeptide Y receptor type 1 (Homo sapiens, UniProt P25929); type: functional;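 also: HEK293 cells with a CNG channel challenged with NPY then isoproterenol; potency as antagonist that reverses NPY suppression of cAMP signal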
# T1 sequence (P25929 whole entry): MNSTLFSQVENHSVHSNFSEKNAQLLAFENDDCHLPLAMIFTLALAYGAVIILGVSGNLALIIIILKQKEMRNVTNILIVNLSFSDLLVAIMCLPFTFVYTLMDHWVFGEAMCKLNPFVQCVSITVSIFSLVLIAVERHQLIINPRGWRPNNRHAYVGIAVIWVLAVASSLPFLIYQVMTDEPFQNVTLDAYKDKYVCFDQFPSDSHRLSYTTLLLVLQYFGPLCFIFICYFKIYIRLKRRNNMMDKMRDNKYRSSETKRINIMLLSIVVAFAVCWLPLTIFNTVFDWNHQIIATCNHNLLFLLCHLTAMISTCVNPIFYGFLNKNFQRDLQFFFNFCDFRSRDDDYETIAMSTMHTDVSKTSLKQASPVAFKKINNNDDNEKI
# [4] = molecular target: T2, Neuropeptide Y receptor type 2 (Homo sapiens, UniProt P49146); type: functional, cell-based;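 also: HEK293 cells expressing the receptor and a CNG channel; stimulus was NPY near EC95 followed by isoproterenol to raise cAMP; antagonist potency measured as restoring cAMP signal that NPY suppresses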
# T2 sequence (P49146 whole entry): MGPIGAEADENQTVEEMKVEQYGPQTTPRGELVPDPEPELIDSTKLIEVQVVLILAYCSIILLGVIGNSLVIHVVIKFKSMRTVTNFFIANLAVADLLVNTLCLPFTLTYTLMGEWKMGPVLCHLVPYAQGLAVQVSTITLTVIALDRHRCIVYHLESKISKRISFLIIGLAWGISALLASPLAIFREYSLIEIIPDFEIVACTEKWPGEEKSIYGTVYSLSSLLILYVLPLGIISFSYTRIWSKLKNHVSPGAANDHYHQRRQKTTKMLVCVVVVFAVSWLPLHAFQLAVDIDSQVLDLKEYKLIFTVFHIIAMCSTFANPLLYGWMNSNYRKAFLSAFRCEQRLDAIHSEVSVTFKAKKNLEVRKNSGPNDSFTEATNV
# [5] = enhancers of respiration in Yfh1-depleted yeast, dose response, Friedreich's ataxia, plus single-dose screen (AID 1465); type: functional;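 also: yeast depleted of Yfh1p frataxin homolog grown on glycerol needing respiration; WST-1 tetrazolium dye reduction as measure of cellular dehydrogenase metabolic activity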
# [6] = Counterscreen for IDE inhibitors: Luminescence-based cell-based high throughput dose response assay to identify compounds that are cytotoxic to HEK cells. [Related pubchem assays: 434962 (Primary screen (IDE inhibitors in singlicate)), 449730 (Counterscreen (Cytotoxicity in triplicate)), 435028 (Confirmation (IDE inhibitors in triplicate)) …; type: functional; settings: HEK293
# Insulin-degrading enzyme = molecular target: T3, Insulin-degrading enzyme (Homo sapiens, UniProt P14735); experiment: Dose Response: Fluorescence polarization-based cell-based high throughput dose response assay for inhibitors of insulin-degrading enzyme (IDE). [Related pubchem assays: 434962 (Primary screen (IDE inhibitors in singlicate)), 449730 (Counterscreen (Cytotoxicity in triplicate)), 435028 (Confirmation (IDE inhibitors in triplicate)), 434984 (Summary …; type: functional
# T3 sequence (P14735 whole entry): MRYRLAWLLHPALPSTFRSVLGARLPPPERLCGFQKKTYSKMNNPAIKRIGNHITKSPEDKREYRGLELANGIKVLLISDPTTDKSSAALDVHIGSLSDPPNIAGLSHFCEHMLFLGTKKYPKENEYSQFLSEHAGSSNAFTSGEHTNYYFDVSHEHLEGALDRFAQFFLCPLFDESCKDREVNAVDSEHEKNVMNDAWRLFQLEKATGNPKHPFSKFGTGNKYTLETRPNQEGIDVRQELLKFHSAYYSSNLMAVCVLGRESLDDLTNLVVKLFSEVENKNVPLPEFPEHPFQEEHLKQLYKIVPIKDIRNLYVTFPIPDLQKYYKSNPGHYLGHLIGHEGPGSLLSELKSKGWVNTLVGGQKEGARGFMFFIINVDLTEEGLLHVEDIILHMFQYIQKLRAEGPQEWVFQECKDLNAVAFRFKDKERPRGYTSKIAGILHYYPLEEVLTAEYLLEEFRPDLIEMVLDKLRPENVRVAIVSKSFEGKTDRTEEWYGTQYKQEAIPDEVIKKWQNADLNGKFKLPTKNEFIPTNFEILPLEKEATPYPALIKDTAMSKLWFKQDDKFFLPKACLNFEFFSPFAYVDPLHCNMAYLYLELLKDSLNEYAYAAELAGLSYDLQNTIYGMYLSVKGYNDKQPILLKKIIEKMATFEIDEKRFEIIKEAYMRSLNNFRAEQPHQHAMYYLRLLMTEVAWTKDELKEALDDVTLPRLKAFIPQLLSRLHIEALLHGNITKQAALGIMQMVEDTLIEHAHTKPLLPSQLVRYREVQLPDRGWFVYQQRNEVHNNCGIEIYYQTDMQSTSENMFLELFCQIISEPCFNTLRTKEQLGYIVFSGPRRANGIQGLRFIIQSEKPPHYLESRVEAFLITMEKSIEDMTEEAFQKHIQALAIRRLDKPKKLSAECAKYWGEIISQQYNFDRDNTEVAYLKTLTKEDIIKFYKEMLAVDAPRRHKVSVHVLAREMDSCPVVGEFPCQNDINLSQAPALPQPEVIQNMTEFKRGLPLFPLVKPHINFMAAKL
# [7] = molecular target: T4, Corticotropin-releasing factor receptor 2/Corticotropin-releasing factor-binding protein (Homo sapiens, UniProt P24387+Q13324); experiment: activators of CRF receptor 2 with binding protein – uHTS hits, confirmation (AID 602473); type: functional; settings: read-out: EC50_Mean
# T4 sequence (Q13324 whole entry): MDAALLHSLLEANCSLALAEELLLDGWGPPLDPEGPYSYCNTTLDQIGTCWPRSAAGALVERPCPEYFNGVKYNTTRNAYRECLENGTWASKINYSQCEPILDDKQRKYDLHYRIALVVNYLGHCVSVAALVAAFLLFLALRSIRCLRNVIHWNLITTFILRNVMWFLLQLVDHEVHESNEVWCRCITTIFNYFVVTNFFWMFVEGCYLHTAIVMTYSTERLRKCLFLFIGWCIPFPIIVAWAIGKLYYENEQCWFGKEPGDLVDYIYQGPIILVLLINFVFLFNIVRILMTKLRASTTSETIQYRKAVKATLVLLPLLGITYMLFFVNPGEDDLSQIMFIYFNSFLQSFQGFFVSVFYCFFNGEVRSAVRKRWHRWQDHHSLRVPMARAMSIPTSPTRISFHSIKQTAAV
# T4 sequence (P24387 whole entry): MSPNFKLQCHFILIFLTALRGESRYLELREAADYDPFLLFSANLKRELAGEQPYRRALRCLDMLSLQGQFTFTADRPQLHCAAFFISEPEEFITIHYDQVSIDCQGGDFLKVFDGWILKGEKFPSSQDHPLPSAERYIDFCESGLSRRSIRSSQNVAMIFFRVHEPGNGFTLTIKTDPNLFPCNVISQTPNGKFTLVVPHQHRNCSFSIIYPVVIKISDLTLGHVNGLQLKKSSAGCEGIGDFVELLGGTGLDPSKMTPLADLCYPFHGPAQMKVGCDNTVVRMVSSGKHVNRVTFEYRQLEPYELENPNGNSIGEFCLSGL
# [8] = system: Streptococcus sp. 'group A'; experiment: growth inhibition of control SK(-) GAS strain, dose response, counter-screen for streptokinase expression inhibitor project, luminescence, kanamycin, BacTiterGlo, confirmation (AID 1900); type: functional, organism-based
# [9] = molecular target: T2, Neuropeptide Y receptor type 2; experiment: NPY-Y2 antagonist potency, selectivity check, dose response, counter-screen for NPY-Y1 antagonist project, cell-based (AID 1278); type: functional
# Streptokinase A = molecular target: T5, Streptokinase A (Streptococcus pyogenes serotype M1, UniProt P10520); experiment: S. pyogenes streptokinase expression inhibitors, potency, dose response, plasminogen activation absorbance, OD405 (AID 1914); type: functional, Streptococcus pyogenes M1 GAS;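 also: secreted streptokinase activity via plasminogen activation per viability signal from cell pellet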
# T5 sequence (P10520 whole entry): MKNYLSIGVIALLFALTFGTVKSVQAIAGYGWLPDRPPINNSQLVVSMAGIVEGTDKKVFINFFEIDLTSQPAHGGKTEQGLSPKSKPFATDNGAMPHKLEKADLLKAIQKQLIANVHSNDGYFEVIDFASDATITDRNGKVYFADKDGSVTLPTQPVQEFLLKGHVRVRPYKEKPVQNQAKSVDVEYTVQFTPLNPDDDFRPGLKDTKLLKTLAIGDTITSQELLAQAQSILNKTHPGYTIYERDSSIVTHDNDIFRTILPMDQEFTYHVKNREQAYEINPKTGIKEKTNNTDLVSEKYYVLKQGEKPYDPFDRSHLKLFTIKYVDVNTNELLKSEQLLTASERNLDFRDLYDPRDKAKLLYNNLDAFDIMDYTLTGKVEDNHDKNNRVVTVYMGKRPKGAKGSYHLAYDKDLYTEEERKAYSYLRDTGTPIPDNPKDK
# [10] = molecular target: T1, Neuropeptide Y receptor type 1; experiment: NPY-Y1 receptor antagonist potency, dose response, cell-based (AID 1277); type: functional
# Streptococcus = experiment: Group A Streptococcus viability loss, dose response, counter-screen for streptokinase expression inhibitor project, luminescence, BacTiterGlo (AID 1915); type: functional, organism-based;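 also: potency for reduction of bacterial viability or growth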
# [11] = HEp-2 cell cytotoxicity, dose response, cytotoxicity control for RSV inhibitor project, HTS (AID 2410); type: functional; settings: human respiratory syncytial virus
# [12] = HIV-1 Env-mediated cell fusion inhibitors, dose response, CCR5-tropic Env (AID 2279); type: functional
# [13] = molecular target: FAD-linked sulfhydryl oxidase ALR (Homo sapiens, UniProt P55789); experiment: inhibitors of human ALR sulfhydryl oxidase, dose response, biochemical, H2O2 detection, luminescence, cherry-pick (AID 493248)
# Sequence of FAD-linked sulfhydryl oxidase ALR (P55789 whole entry): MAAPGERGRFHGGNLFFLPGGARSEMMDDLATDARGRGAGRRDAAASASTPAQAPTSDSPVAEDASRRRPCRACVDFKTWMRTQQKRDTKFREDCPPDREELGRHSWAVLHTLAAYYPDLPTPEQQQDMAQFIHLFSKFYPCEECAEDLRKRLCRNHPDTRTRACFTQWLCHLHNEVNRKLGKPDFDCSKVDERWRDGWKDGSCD
# Genome polyprotein = Genome polyprotein (dengue virus type 2, UniProt P29990); experiment: Dengue-2 NS5 methyltransferase inhibitors, primary screen, biochemical, confirmation dose response (AID 588689); type: functional
# Sequence of Genome polyprotein (P29990 2492-3391 limits assumed): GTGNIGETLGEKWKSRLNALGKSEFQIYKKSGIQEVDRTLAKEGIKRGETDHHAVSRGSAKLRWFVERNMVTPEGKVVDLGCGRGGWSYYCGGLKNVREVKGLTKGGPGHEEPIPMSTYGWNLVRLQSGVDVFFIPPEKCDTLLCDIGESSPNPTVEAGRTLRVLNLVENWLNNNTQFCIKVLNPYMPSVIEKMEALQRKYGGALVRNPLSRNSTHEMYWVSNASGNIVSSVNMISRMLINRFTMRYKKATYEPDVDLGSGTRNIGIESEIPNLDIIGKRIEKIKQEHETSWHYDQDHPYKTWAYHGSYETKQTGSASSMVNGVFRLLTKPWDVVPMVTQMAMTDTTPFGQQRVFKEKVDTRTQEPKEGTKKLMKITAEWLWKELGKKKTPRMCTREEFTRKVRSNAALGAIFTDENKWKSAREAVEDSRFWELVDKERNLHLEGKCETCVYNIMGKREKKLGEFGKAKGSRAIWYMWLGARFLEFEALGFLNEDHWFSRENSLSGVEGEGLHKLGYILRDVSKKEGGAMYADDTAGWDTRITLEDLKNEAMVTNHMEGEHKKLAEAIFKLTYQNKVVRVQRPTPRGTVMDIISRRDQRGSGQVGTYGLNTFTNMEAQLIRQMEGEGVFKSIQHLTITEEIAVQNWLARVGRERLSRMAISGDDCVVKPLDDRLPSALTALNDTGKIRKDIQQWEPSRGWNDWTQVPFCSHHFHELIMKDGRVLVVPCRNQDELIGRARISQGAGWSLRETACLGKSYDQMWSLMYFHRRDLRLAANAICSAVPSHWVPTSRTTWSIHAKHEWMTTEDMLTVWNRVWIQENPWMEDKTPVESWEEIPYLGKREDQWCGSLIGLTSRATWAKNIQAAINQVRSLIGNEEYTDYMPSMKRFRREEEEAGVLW
# [14] = molecular target: T6, Long-chain-fatty-acid--AMP ligase FadD28 (Mycobacterium tuberculosis, UniProt P9WQ59); experiment: Fluorescence polarization aasay to screen for inhibitors that compete for the binding of FadD28 to a bisubstrate Measured in Biochemical System Using Plate Reader - 2147-01_Inhibitor_Dose_CherryPick_Activity.; type: functional, Mycobacterium tuberculosis H37Rv
# T6 sequence (P9WQ59 whole entry): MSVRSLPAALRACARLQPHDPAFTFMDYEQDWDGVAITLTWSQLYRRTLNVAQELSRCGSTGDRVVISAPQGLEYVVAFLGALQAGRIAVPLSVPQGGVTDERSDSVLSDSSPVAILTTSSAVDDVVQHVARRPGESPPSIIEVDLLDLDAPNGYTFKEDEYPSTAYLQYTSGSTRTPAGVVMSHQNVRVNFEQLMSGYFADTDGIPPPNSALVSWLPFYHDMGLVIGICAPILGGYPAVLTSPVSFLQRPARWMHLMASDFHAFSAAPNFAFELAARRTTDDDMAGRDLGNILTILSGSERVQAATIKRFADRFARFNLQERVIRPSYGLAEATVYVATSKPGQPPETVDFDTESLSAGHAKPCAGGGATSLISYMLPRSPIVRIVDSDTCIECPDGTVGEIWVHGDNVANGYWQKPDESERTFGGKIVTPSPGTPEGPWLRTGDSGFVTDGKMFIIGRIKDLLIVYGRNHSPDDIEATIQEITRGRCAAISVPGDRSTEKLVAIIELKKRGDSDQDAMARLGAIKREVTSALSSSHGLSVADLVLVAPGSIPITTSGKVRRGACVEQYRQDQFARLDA
# Large T antigen = Large T antigen (Simian virus 40, UniProt P03070); type: functional, Betapolyomavirus macacae;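 also: Confirmatory-stage PubChem screen for compounds that inhibit SV40 T antigen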
# Sequence of Large T antigen (P03070 whole entry): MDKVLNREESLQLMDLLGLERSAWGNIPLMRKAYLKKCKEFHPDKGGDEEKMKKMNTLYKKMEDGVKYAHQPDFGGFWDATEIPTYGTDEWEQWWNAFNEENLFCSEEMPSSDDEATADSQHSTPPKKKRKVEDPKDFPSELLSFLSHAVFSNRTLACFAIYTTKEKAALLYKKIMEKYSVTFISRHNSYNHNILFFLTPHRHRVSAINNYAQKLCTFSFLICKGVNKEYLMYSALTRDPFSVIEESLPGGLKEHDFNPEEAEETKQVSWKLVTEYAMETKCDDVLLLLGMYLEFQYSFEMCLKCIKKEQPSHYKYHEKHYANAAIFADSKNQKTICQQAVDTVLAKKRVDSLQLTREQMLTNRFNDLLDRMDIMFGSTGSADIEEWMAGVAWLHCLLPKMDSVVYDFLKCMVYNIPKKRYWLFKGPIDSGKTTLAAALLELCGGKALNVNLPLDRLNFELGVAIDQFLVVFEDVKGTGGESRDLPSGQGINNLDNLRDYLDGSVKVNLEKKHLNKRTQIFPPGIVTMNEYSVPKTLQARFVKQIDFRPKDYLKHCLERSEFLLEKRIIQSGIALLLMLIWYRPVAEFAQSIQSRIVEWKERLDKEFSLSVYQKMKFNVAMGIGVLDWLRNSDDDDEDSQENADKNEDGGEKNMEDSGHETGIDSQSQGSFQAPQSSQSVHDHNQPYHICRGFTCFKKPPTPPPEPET
# [15] = molecular target: T7, Mannose-6-phosphate isomerase (Homo sapiens, UniProt P34949); experiment: inhibitors of human PMI, primary screen, biochemical, fluorescence intensity, coupled assay (AID 1209)
# T7 sequence (P34949 whole entry): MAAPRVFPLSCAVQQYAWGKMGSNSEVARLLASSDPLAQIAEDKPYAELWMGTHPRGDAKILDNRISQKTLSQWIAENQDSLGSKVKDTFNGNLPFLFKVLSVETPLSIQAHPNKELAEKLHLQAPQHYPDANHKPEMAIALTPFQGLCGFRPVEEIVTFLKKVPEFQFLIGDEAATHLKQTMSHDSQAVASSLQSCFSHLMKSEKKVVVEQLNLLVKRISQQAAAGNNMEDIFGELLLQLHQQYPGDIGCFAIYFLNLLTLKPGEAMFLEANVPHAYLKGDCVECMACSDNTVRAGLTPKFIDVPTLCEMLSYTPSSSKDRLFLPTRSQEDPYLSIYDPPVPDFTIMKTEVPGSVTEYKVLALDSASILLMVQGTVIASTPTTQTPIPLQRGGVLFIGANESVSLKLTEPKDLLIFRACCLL
# [16] = molecular target: T7, Mannose-6-phosphate isomerase; experiment: human PMI inhibitors, high substrate, primary screen, biochemical, fluorescence intensity, high mannose 6-phosphate (AID 1220)
# [17] = inhibitors of Vif binding to APOBEC3G peptide, primary screen, biochemical, TR-FRET, GST-Vif 1-94, biotin-A3G peptide, dose response retest (AID 1117319); type: functional;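 also: TR-FRET signal of purified GST-Vif binding a biotinylated A3G peptide; inhibitors lower the FRET signal by blocking Vif and A3G binding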
# [18] = Vero cell cytotoxicity, dose response, cytotoxicity control for Vif-APOBEC3G degradation inhibitor project, Vero cells (AID 1117358); type: functional; settings: Human immunodeficiency virus 1, Vero
compound,measurement,setting,value
C#CCOc1ccc2c(c1)c(C(C)=O)c(C)n2Cc1ccccc1,IC50,[1],> 100 µM (active)
same,CC50,[2],> 40 µM (active)
CCOc1nc(SCCOc2ccc(Cl)cc2Cl)nc(N(C)C)n1,IC50,[3],5.54 µM (active)
same,IC50,[4],5.52 µM (active)
CC1(OC(=O)C2CCCC2)C(=O)C=C2C=C(c3ccsc3)N(Cc3ccco3)C=C2C1=O (stereo not drawn),EC50,[5],> 100 µM (active)
CCN1/C(=C\C=C(C(C)=O)C(C)=O)Sc2ccccc21,IC50,[6],33.9 µM (not active)
same,IC50,Insulin-degrading enzyme,8.83 µM (active)
same,EC50,[7],4.9 µM (active)
COc1ccc(C(=O)/C(C#N)=N/Nc2cccc([N+](=O)[O-])c2)cc1,EC50,[8],22.8 µM (active)
same,IC50,[9],> 35 µM (not active)
same,EC50,Streptokinase A,> 150 µM (not active)
same,IC50,[10],> 35 µM (not active)
same,EC50,Streptococcus,94.3 µM (active)
O=C(O)c1cc(N/N=C/c2ccc(-c3ccccc3)cc2)ccc1Cl,CC50,[11],31.1 µM (active)
same,IC50,[12],11 µM (active)
same,AC50,[13],1.83 µM (active)
same,IC50,Genome polyprotein,61.5 µM (active)
same,AC50,[14],18.4 µM (active)
Oc1ccc(/C=N/NP(=S)(c2ccccc2)c2ccccc2)cc1O,IC50,Large T antigen,54.9 µM (active)
same,IC50,[15],> 50 µM (not active)
same,IC50,[16],> 50 µM (not active)
same,IC50,[17],> 100 µM (active)
same,CC50,[18],> 40 µM (active)

# Reference: ChEMBL document CHEMBL1201862, “PubChem BioAssay data set” (2004)
